Key:
Type in all cases: in vivo, guinea pig (Cavia porcellus)
[1] = test system: normal eye growth in guinea pigs; assay: Eye drops on normal growth and emmetropization (no lens wear); details: eye drops twice daily 9-16 days of age
Experimental: Two experimental protocols were employed (see Table 4). In Experiment 1, young guinea pigs wore a −6D lens on one eye from 5-12 days of age. They were randomly divided within each litter into two groups of 10 animals each, and received either a drop of L-Arginine (100 mM, 1.7%) in Saline (pH 7.4) or Saline alone (0.9%, pH 7.4) twice per day in the eye wearing the lens (Table 4). Drops were administered at the beginning of their light cycle and again approximately 6 hrs later in the middle of their day cycle. Lenses were removed during the drop administration which occurred under dim red light or in darkness. A single large drop was bathed on the cornea for 3 min in the lens-wearing eye in hand held animals. A clean lens was then reintroduced onto the eye. In Experiment 2, 14 guinea pigs were given eye drops in the same manner as in Experiment 1, but in both eyes and without any lens-wear, to determine the effect of the eye drops on normal eye growth. Animals received one drop of either 1.7% L-arginine (n=7) or atropine (Minims Atropine Sulphate 1%, Bausch & Lomb, preservative free, n=7) in one eye and saline (0.9%) in the other eye twice per day from 9-16 days of age.
In Experiment 1, at the end of the lens-wearing period, at 12 days of age just before the morning lights came on, both eyes were cyclopleged (1% Cyclopentolate—to paralyse the focussing muscles of the eye to a resting state) and 1.25 hours later, refractive error (RE) was measured. Animals were then anaesthetised with gaseous anaesthetic (1.5% isoflurane in oxygen) and eye length measures were taken in both eyes with high frequency ultrasound as described in Example 1. Biometry measures were also taken in the same manner before the lens wear period at 5 days of age. [No refractive measures were done at 5 days of age as cycloplegia could have interfered with the drug or lens response]. In Experiment 2, refractive error and eye length using ultrasound were measured in the same manner at 17 days of age, 24 hours after the previous drop was administered.
After cycloplegia was induced, refractive error was measured in each eye using an Autorefractor (Nidek AR-20, Japan). The spherical equivalent was calculated as the average of the sphere plus half the cylinder as is normal in clinical practice. All reported refractive errors are the spherical equivalent. Next, ocular length was measured using high frequency ultrasound (20 MHz) as previously described (McFadden et al, 2004). At least 20 traces were recorded for each eye and distances were averaged for at least 10 of these recordings. Peaks from the recordings were selected for the back of the cornea, the crystalline lens, and the vitreous chamber, and the layers at the back of the eye: the retina, choroid, and sclera. Ocular length was defined as the summed measurement from the front of the cornea to the back of the sclera.
Differences between the two eyes were analysed by a 2-tailed T-tests. The mean of calculated differences between the two eyes is referred to as relative myopia or relative ocular length and the difference in the change in ocular length in the treated compared to the untreated eye as relative growth.

[2] = test system: recovery from myopia in guinea pigs; assay: Intravitreal nωPLA during recovery from −6D lens-induced myopia
From the text: That is, if up-regulation of nNOS was causal in the myopic recovery response, injections of nωPLA would be expected to inhibit the ability of the myopic eye recover from myopia.
(§1) In this second experiment, thirty four guinea pigs were raised and measured as described in Example 1. To induce myopia, animals wore a −6D lens on one eye from P6-P13, which was then removed for 3 days to initiate recovery from myopia, exactly as described in Example 1, Group 3. During the recovery period, animals received daily intravitreal injections (10 μl into the eye which had worn the lens) of either 6 mM nωPLA (PLA, n=9) or vehicle (0.9% isotonic saline, pH 7.4, n=11) on postnatal days P13, P14, and P15. To study the effect of the drugs on normal growth, a further seven animals were raised for the same period without lenses, and from P13 received a vehicle injection into the left eye and a 6 mM nωPLA injection into the right eye for 3 days. The dosage level of 6 mM refers to the concentration of nωPLA in the syringe. (Considerably smaller doses would be experienced at the level of the retina). In all animals, refractive error and axial parameters were measured in both eyes before and after the recovery period, at P13 and P16. In lens-wearing animals, untreated fellow eyes served as matched controls and data is expressed as the relative difference between the lens-wearing eye and the fellow eye.

[3] = test system: normal growth of guinea pig eyes; assay: Intravitreal nωPLA on normal growth (animals without lenses); details: 6 mM nωPLA right eye vs vehicle left eye, 3 days from P13, no lenses
Experimental: as §1

Compound	ocular length on average ([1]; measured at 17 days, p=0.22 between groups) [mm]	mean refractive error, both eyes averaged ([1]; measured at 17 days, p=0.32 between groups)	effect on refractive error (drug eye vs saline eye) ([1]; no lens, 1.7% LA (p=0.69) or 1% Atropine (p=0.40))	difference between the two eyes in ocular length (drug eye vs saline control eye) ([1]; LA p=0.39, ATR p=0.42)	difference between the eyes in refractive error after the three day recovery period ([2]; 6 mM nωPLA (in syringe) 10 μl intravitreal daily P13-P15, measured P16) [D]	ocular length relative to the saline group after the recovery period ([2]; 6 mM nωPLA intravitreal daily P13-P15, measured P16)	elongation in animals without myopia [3]	relative myopia in animals without myopia [3]
CN1[C@@H]2CC[C@H]1C[C@@H](OC(=O)C(CO)c1ccccc1)C2 (some centres unmarked) [Atropine]	8.192	+5.08	no difference in mean refractive error between the two eyes	+20 μm				
CCCN=C(N)NCCC[C@H](N)C(=O)O [nωPLA, N-w-propyl-L-arginine]					−5.4	had longer eyes	no influence	no influence

— patent publication US10945980B2, “Treatment for myopia” (The University of Newcastle, priority 2016, dated 2021)
